{"source": "ChEMBL document CHEMBL1201862", "about": "“PubChem BioAssay data set” (2004)", "type_in_all_cases": "functional", "key": {"[1]": {"biological_target": "26S proteasome non-ATPase regulatory subunit 14 (Homo sapiens, UniProt O00487)", "sequence (O00487 whole entry)": "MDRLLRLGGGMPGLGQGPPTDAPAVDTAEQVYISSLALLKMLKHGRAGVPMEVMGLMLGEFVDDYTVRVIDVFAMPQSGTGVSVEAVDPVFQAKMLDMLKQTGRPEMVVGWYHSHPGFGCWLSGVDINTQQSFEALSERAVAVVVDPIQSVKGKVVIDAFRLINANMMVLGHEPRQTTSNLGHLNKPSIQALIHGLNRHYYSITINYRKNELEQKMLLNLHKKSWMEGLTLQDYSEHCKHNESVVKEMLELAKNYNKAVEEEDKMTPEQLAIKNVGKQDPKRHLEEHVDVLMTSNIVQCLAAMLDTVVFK", "assay": "inhibition of proteasome subunit RPN11 – biochemical, fluorescence polarization, uHTS hits, confirmation (AID 602368)"}, "[2]": {"biological_target": "72 kDa type IV collagenase (Homo sapiens, UniProt P08253)", "sequence (P08253 whole entry)": "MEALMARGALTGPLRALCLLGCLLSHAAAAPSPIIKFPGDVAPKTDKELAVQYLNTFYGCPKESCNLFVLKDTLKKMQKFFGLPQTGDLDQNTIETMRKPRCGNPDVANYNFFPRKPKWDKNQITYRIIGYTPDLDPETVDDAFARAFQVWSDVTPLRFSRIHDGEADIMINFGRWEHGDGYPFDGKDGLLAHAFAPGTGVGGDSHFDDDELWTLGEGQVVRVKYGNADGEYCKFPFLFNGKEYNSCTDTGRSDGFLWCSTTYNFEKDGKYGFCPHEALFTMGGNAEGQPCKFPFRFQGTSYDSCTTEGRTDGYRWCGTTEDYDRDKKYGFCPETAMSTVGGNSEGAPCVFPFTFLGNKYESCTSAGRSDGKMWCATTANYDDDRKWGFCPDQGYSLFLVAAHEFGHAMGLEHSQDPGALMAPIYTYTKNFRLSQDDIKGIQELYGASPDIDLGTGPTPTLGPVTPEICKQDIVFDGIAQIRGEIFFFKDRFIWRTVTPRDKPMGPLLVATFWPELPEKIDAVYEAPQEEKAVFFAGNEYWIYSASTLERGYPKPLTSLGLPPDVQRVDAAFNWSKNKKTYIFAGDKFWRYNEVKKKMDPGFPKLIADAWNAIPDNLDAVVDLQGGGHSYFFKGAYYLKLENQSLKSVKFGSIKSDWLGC", "assay": "Dose Response validation of uHTS RPN11 inhibitor hits using a MMP-2 Fluorescence assay."}, "Prothrombin": {"biological_target": "Prothrombin (Bos taurus, UniProt P00735)", "assay": "thrombin inhibition, dose response, biochemical, fluorescence polarization, uHTS hits (AID 602369)"}, "[3]": {"biological_target": "T1, Carboxy-terminal domain RNA polymerase II polypeptide A small phosphatase 1 (Homo sapiens, UniProt Q9GZU7)", "T1 sequence (Q9GZU7 whole entry)": "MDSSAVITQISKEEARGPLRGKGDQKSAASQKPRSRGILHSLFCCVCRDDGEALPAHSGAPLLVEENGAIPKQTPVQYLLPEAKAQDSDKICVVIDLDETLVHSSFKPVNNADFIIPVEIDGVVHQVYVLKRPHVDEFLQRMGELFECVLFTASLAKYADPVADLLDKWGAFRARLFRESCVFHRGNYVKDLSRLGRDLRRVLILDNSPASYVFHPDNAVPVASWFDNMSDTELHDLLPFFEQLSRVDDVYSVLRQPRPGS", "assay": "inhibitors of CTDSP1, concentration-response testing, biochemical assay, absorbance-based, actives from ultra-high-throughput screening (AID 540297)"}, "[4]": {"biological_target": "T2, Sentrin-specific protease 8 (Homo sapiens, UniProt Q96LD8)", "T2 sequence (Q96LD8 whole entry)": "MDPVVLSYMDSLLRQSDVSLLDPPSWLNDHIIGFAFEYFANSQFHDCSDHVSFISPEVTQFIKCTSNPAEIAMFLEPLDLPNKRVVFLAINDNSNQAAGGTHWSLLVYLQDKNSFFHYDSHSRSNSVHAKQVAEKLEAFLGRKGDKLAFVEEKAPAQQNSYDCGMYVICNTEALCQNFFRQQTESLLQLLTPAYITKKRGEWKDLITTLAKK", "assay": "SENP8 protease inhibitors, SAR follow-up, biochemical, luminescence (AID 504501)"}, "Caspase-3": {"biological_target": "T3, Caspase-3 (Homo sapiens, UniProt P42574)", "T3 sequence (P42574 whole entry)": "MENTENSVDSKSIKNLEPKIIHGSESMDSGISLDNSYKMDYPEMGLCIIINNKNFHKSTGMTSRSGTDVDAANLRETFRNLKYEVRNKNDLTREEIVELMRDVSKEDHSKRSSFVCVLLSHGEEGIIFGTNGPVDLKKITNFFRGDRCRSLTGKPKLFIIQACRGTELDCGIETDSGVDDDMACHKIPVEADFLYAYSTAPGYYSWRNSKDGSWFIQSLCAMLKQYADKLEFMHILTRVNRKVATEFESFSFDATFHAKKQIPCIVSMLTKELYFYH", "assay": "SAR Analysis of small molecule inhibitors of Sentrin-specific proteases (SENPs) using a Caspase-3 Selectivity assay. [Related pubchem assays (depositor defined):AID2540, AID2599, AID434973, AID489001]"}, "[5]": {"biological_target": "T4, Sentrin-specific protease 6 (Homo sapiens, UniProt Q9GZR1)", "T4 sequence (Q9GZR1 whole entry)": "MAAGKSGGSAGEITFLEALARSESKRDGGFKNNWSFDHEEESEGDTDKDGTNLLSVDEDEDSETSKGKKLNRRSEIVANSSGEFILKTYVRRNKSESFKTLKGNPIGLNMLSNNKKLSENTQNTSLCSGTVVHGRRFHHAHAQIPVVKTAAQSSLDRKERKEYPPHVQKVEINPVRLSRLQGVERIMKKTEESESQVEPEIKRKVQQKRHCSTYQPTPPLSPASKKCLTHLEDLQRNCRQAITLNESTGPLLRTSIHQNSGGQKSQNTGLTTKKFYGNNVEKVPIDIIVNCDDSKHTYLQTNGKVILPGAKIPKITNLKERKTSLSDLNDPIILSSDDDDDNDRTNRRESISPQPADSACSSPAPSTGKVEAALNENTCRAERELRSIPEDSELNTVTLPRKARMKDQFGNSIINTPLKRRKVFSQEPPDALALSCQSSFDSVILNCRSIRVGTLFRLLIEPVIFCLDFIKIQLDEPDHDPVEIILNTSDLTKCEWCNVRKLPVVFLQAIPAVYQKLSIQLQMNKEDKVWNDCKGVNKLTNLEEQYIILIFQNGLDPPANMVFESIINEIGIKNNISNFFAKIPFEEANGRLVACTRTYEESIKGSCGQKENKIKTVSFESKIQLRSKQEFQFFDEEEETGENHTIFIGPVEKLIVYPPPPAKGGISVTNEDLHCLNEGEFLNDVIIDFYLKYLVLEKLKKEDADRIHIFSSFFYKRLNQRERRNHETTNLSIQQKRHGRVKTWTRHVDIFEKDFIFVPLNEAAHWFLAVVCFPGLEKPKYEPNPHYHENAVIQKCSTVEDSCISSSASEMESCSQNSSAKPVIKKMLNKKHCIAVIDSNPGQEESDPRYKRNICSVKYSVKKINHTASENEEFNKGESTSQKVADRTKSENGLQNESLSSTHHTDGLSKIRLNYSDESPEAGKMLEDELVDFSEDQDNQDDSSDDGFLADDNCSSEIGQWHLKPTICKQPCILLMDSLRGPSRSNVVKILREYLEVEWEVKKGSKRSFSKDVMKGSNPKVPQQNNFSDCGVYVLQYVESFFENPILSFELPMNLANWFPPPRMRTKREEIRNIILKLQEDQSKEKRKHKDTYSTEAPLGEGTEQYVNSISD", "assay": "SAR Analysis of small molecule inhibitors of Sentrin-specific protease 6 (SENP6) using a Luminescent assay. [Related pubchem assays (depositor defined):AID2582, AID2599]"}, "[6]": {"biological_target": "T5, Sentrin-specific protease 7 (Homo sapiens, UniProt Q9BQF6)", "T5 sequence (Q9BQF6 whole entry)": "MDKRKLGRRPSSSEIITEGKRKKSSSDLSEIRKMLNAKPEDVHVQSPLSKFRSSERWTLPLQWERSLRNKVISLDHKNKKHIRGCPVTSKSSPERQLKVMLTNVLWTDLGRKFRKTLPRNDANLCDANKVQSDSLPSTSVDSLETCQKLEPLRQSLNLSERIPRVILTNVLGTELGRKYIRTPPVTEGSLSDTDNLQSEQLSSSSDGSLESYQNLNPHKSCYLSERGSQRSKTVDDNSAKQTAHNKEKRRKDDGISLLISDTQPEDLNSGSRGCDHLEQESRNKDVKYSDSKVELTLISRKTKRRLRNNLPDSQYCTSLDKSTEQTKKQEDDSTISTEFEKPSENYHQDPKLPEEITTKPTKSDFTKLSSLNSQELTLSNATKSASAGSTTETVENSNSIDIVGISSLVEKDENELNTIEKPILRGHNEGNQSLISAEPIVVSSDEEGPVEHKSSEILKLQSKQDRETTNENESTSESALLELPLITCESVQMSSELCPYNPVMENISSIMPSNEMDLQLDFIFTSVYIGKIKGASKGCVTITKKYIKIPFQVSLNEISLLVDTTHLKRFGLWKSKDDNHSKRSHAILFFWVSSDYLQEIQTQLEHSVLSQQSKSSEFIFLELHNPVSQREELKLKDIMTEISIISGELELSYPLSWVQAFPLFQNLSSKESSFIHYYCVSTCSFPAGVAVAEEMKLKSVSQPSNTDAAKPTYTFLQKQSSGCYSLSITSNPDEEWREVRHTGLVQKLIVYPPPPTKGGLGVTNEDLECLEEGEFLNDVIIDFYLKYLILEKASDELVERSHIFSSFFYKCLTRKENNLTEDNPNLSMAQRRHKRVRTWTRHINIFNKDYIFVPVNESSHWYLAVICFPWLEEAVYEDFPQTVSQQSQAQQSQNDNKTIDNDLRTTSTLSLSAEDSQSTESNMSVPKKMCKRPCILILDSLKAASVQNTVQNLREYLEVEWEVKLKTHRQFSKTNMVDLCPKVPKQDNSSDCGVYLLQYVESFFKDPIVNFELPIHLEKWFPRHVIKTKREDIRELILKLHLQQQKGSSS", "assay": "SENP7 protease inhibitors, SAR follow-up, biochemical, luminescence (AID 504497)"}, "HEK293": {"system": "HEK293", "assay": "inhibitors of LMP1-driven NF-kB reporter, dose response, cell-based, HEK293, luciferase, cherry-pick (AID 588343)", "details": "Homo sapiens"}, "[7]": {"biological_target": "T6, Corticotropin-releasing factor receptor 2/Corticotropin-releasing factor-binding protein (Homo sapiens, UniProt P24387+Q13324)", "T6 sequence (Q13324 whole entry)": "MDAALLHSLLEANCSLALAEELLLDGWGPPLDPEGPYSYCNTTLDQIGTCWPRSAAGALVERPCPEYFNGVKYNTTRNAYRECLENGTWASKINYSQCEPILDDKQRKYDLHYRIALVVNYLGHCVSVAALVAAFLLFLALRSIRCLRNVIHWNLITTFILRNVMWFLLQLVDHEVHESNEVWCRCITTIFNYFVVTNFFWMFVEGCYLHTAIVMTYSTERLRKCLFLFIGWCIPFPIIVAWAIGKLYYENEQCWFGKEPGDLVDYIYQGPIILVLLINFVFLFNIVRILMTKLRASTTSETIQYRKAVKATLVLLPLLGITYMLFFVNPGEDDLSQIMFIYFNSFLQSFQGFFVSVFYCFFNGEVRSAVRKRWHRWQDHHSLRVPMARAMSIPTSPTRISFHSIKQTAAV", "T6 sequence (P24387 whole entry)": "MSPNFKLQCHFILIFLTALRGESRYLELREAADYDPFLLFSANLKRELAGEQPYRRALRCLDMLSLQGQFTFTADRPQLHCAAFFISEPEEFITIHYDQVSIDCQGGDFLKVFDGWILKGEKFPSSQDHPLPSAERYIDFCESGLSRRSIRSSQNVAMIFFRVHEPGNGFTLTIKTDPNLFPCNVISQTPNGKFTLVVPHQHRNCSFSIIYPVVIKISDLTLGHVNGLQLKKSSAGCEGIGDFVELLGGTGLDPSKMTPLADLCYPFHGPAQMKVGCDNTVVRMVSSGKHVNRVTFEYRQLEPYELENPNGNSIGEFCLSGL", "assay": "Dose Response confirmation of uHTS hits for small molecule antagonists of the CRF-binding protein and CRF-R2 receptor complex.", "details": "read-out: IC50_Mean"}, "[8]": {"biological_target": "T6, Corticotropin-releasing factor receptor 2/Corticotropin-releasing factor-binding protein", "assay": "activators of CRF receptor 2 with binding protein – uHTS hits, confirmation (AID 602473)", "details": "read-out: EC50_Mean"}, "[9]": {"biological_target": "Tyrosine-protein kinase JAK2 (Homo sapiens, UniProt O60674)", "sequence (O60674 whole entry)": "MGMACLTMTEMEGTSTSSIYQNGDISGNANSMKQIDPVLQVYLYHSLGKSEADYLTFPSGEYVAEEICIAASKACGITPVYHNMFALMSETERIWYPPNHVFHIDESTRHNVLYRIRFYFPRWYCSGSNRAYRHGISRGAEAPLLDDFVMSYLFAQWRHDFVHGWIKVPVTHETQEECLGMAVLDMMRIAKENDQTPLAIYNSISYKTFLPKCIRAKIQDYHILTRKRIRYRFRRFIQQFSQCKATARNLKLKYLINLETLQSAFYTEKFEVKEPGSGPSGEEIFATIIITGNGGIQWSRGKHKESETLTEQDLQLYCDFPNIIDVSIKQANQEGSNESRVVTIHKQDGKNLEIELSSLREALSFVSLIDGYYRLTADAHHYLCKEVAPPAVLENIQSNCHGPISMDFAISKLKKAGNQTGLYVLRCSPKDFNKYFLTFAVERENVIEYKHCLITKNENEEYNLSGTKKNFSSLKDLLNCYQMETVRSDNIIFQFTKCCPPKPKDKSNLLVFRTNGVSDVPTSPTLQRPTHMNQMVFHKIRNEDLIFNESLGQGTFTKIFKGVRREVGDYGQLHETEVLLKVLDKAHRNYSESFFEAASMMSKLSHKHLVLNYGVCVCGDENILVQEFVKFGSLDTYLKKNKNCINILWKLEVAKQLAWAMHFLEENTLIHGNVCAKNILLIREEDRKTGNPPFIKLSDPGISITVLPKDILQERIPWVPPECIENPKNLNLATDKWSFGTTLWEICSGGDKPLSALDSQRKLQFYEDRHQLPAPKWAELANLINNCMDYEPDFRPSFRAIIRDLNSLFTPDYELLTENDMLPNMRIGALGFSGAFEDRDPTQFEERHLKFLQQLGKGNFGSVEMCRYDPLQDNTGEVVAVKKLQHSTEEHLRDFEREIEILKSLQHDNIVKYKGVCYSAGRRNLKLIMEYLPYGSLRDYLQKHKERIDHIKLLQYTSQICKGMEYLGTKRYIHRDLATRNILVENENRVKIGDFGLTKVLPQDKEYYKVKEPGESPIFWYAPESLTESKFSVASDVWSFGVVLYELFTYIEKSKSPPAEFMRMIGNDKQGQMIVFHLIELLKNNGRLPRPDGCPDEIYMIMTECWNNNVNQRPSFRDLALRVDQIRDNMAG"}, "[10]": {"biological_target": "Tyrosine-protein kinase JAK3 (Homo sapiens, UniProt P52333)", "sequence (P52333 whole entry)": "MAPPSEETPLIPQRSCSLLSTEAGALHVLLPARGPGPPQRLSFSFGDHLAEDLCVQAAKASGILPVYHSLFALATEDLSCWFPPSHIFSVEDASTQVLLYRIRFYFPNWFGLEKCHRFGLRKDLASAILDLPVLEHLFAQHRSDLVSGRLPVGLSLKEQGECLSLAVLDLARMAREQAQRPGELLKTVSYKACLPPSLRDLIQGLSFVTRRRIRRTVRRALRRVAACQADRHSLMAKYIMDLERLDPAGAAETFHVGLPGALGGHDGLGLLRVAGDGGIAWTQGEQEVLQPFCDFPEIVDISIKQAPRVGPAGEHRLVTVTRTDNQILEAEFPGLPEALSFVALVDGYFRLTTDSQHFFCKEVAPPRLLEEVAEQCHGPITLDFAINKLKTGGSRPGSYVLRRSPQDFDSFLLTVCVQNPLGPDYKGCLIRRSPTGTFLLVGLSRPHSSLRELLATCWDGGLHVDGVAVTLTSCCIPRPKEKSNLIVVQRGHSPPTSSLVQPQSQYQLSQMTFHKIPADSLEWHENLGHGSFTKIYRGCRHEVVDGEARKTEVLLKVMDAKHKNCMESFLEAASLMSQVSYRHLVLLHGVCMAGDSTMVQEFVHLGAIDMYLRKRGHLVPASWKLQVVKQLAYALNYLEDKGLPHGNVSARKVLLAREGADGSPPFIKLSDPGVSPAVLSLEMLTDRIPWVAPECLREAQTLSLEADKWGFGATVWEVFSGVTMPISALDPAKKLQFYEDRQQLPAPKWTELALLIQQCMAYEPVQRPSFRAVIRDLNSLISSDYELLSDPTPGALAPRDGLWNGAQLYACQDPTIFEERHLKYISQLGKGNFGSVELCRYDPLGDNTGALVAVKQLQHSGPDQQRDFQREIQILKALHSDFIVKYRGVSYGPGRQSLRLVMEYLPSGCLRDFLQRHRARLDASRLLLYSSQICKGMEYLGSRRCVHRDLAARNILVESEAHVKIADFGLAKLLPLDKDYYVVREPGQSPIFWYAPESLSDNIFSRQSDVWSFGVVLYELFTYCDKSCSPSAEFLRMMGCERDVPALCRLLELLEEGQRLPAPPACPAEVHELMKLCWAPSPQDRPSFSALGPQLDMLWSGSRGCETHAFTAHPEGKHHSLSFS"}}, "note": "Active and inactive are the calls of the source. Rule as the data show it, for most assays here: actives have a measured IC50 and inactives only a lower limit."}
{"smiles": "O=Cc1sc(Nc2ccccc2)nc1Cl", "values": [{"measurement": "IC50", "setting": "[1]", "value": "8.23 µM (active)"}, {"measurement": "IC50", "setting": "[2]", "value": "> 100 µM (inactive)"}, {"measurement": "IC50", "setting": "Prothrombin", "value": "11.4 µM (active)"}]}
{"smiles": "O=C(NNc1ncnc2ccccc12)c1cccc(Cl)c1", "values": [{"measurement": "IC50", "setting": "[3]", "value": "18.5 µM (active)"}, {"measurement": "IC50", "setting": "[1]", "value": "24.8 µM (active)"}, {"measurement": "IC50", "setting": "[2]", "value": "> 100 µM (inactive)"}, {"measurement": "IC50", "setting": "Prothrombin", "value": "71.3 µM (active)"}]}
{"smiles": "COc1ccc(OC)c2sc(NC(=O)c3ccc(Br)s3)nc12", "values": [{"measurement": "IC50", "setting": "[4]", "value": "> 99 µM (inactive)"}, {"measurement": "IC50", "setting": "Caspase-3", "value": "> 99 µM (inactive)"}, {"measurement": "IC50", "setting": "[5]", "value": "> 99 µM (inactive)"}, {"measurement": "IC50", "setting": "[6]", "value": "> 99 µM (inactive)"}]}
{"smiles": "COc1ccc(C(=O)Nn2c(SCC(=O)NC3CCCCC3)nc3ccccc3c2=O)cc1", "values": [{"measurement": "AC50", "setting": "HEK293", "value": "6.79 µM (active)"}, {"measurement": "IC50", "setting": "[7]", "value": "< 368 nM (active)"}, {"measurement": "EC50", "setting": "[8]", "value": "> 53 µM (inactive)"}]}
{"smiles": "O=c1[nH]c2cnc(-n3cnc4ccc(F)cc43)nc2n1C1CCOc2c(F)cccc21", "note": "(stereo unspecified)", "values": [{"measurement": "Ki", "setting": "[9]", "value": "5.01 nM (active)"}, {"measurement": "Ki", "setting": "[10]", "value": "5.01 nM (active)"}]}
